Reference: ChEMBL document CHEMBL6127102 (Bioorg Med Chem, 2024)
Calls of active or inactive are those of the source. The calls are words filed in the database; no cut-off is given here.

What was measured:
[1] = system: MDA-MB-231; test: Induction of apoptosis in human MDA-MB-231 cells assessed as increase in Bax level at 5 uM incubated for 24 hrs by Western blot analysis; format: functional, cell-based
[2] = system: MDA-MB-231; test: Induction of DNA damage in human MDA-MB-231 cells assessed as increase in olive tail moments at 5 uM incubated for 24 hrs by Comet assay; format: functional, cell-based
[3] = system: MDA-MB-436; test: Antitumor activity against BRCA 1-deficient human MDA-MB-436 cells incubated for 72 hrs by MTT assay; format: functional, cell-based; settings: MDA-MB-436, 72 h
[4] = Cytotoxicity against human MCF-10A cells incubated for 72 hrs by MTT assay; format: toxicity, cell-based
[5] = system: MDA-MB-231; test: Induction of apoptosis in human MDA-MB-231 cells assessed as increase in cleaved caspase-9 level at 5 uM incubated for 24 hrs by Western blot analysis; format: functional, cell-based
[6] = system: MDA-MB-231; test: Induction of apoptosis in human MDA-MB-231 cells assessed as decrease in Bcl-2 level at 5 uM incubated for 24 hrs by Western blot analysis; format: functional, cell-based
[7] = system: MDA-MB-231; test: Antitumor activity against human MDA-MB-231 cells xenografted in BALB/c nude mouse assessed as decrease in Ki-67 expression at 38 mg/kg, ip administered on every 2 days for 28 days by H and E staining based analysis; format: functional, organism-based; settings: time 28.0 day
[8] = Toxicity in BALB/c nude mouse xenografted with human MDA-MB-231 cells assessed as damage in kidney at 38 mg/kg, ip administered on every 2 days for 28 days by H and E staining based analysis; format: organism-based; settings: in vivo, 672 h, time 28 day
[9] = system: MDA-MB-231; test: Effect on CRAF expression in human MDA-MB-231 cells at 5 uM incubated for 24 hrs by Western blot analysis; format: functional, cell-based
[10] = Toxicity in BALB/c nude mouse xenografted with human MDA-MB-231 cells assessed as drug tolerance at 38 mg/kg, ip administered on every 2 days for 28 days; format: organism-based; settings: in vivo, 672 h, time 28 day
[11] = Toxicity in BALB/c nude mouse xenografted with human MDA-MB-231 cells assessed as damage in heart at 38 mg/kg, ip administered on every 2 days for 28 days by H and E staining based analysis; format: organism-based; settings: in vivo, 672 h, time 28 day
[12] = system: MDA-MB-231; test: Antitumor activity against human MDA-MB-231 cells xenografted in BALB/c nude mouse at 38 mg/kg, ip administered on every 2 days for 28 days relative to control; format: functional; settings: MDA-MB-231, 672 h, time 28 day, read-out: TGI
[13] = system: HCC1937; test: Antitumor activity against BRCA 1-deficient human HCC1937 cells incubated for 72 hrs by MTT assay; format: functional, cell-based; settings: HCC1937, 72 h
[14] = Toxicity in BALB/c nude mouse xenografted with human MDA-MB-231 cells assessed as damage in spleen at 38 mg/kg, ip administered on every 2 days for 28 days by H and E staining based analysis; format: organism-based; settings: in vivo, 672 h, time 28 day
[15] = Toxicity in BALB/c nude mouse xenografted with human MDA-MB-231 cells assessed as body weight change at 38 mg/kg, ip administered on every 2 days for 28 days; format: organism-based; settings: in vivo, 672 h, time 28 day
[16] = system: MDA-MB-231; test: Induction of ROS generation in human MDA-MB-231 cells at 5 uM incubated for 24 hrs by DCFH-DA staining based flow cytometric analysis; format: functional, cell-based
[17] = system: MDA-MB-231; test: Induction of apoptosis in human MDA-MB-231 cells as increase in red fluorescence at 5 uM incubated for 24 hrs by Calcein AM/PI staining based confocal microscopy; format: functional, cell-based
[18] = Toxicity in BALB/c nude mouse xenografted with human MDA-MB-231 cells assessed as damage in lung at 38 mg/kg, ip administered on every 2 days for 28 days by H and E staining based analysis; format: organism-based; settings: in vivo, 672 h, time 28 day
[19] = system: MDA-MB-231; test: Induction of apoptosis in human MDA-MB-231 cells at 5 uM incubated for 24 hrs by Annexin V-FITC/PI staining based flow cytometry relative to control; format: functional
[20] = system: MDA-MB-231; test: Antitumor activity against human MDA-MB-231 cells xenografted in BALB/c nude mouse assessed as increase in apoptotic cells at 38 mg/kg, ip administered on every 2 days for 28 days by H and E staining based analysis; format: functional, organism-based; settings: time 28.0 day
[21] = system: MDA-MB-231; test: Effect on total ERK1/2 in human MDA-MB-231 cells at 5 uM incubated for 24 hrs by Western blot analysis; format: functional, cell-based
[22] = system: MDA-MB-231; test: Effect on RAF expression in human MDA-MB-231 cells at 5 uM incubated for 24 hrs by Western blot analysis; format: functional, cell-based
[23] = system: MDA-MB-231; test: Anti-migration activity in human MDA-MB-231 cells assessed as wound closure area at 1 uM incubated for 24 hrs by wound healing assay (reference value: 75.6 %); format: functional
[24] = system: MDA-MB-231; test: Antitumor activity against human MDA-MB-231 cells xenografted in BALB/c nude mouse assessed as increase in necrotic cells at 38 mg/kg, ip administered on every 2 days for 28 days by H and E staining based analysis; format: functional, organism-based; settings: time 28.0 day
[25] = system: MDA-MB-231; test: Effect on ERK1/2 phosphorylation in human MDA-MB-231 cells at 5 uM incubated for 24 hrs by Western blot analysis; format: functional, cell-based
[26] = system: MDA-MB-231; test: Induction of apoptosis in human MDA-MB-231 cells assessed as increase in cleaved caspase-3 level at 5 uM incubated for 24 hrs by Western blot analysis; format: functional, cell-based
[27] = system: MDA-MB-231; test: Effect on total MEK in human MDA-MB-231 cells at 5 uM incubated for 24 hrs by Western blot analysis; format: functional, cell-based
[28] = system: MDA-MB-231; test: Induction of DNA damage in human MDA-MB-231 cells assessed as increase in gamma-H2AX level at 5 uM incubated for 24 hrs by immunofluorescence based analysis; format: functional, cell-based
[29] = system: MDA-MB-231; test: […] activity in human MDA-MB-231 cells at 1 uM incubated for 24 hrs by wound healing assay; format: functional, cell-based
[30] = system: MDA-MB-468; test: Antitumor activity against human MDA-MB-468 cells harboring wild-type BRCA incubated for 72 hrs by MTT assay; format: functional, cell-based; settings: MDA-MB-468, 72 h
[31] = system: MDA-MB-231; test: Induction of apoptosis in human MDA-MB-231 cells assessed as increase in cleaved PARP level at 5 uM incubated for 24 hrs by Western blot analysis; format: functional, cell-based
[32] = system: MDA-MB-231; test: Effect on MEK phosphorylation in human MDA-MB-231 cells at 5 uM incubated for 24 hrs by Western blot analysis; format: functional, cell-based
[33] = biological target: Poly [ADP-ribose] polymerase 1 (Homo sapiens, UniProt P09874); test: Inhibition of PARP1 (unknown origin) using histone as substrate incubated for 60 mins by ELISA
Poly [ADP-ribose] polymerase 1, sequence (P09874 whole entry): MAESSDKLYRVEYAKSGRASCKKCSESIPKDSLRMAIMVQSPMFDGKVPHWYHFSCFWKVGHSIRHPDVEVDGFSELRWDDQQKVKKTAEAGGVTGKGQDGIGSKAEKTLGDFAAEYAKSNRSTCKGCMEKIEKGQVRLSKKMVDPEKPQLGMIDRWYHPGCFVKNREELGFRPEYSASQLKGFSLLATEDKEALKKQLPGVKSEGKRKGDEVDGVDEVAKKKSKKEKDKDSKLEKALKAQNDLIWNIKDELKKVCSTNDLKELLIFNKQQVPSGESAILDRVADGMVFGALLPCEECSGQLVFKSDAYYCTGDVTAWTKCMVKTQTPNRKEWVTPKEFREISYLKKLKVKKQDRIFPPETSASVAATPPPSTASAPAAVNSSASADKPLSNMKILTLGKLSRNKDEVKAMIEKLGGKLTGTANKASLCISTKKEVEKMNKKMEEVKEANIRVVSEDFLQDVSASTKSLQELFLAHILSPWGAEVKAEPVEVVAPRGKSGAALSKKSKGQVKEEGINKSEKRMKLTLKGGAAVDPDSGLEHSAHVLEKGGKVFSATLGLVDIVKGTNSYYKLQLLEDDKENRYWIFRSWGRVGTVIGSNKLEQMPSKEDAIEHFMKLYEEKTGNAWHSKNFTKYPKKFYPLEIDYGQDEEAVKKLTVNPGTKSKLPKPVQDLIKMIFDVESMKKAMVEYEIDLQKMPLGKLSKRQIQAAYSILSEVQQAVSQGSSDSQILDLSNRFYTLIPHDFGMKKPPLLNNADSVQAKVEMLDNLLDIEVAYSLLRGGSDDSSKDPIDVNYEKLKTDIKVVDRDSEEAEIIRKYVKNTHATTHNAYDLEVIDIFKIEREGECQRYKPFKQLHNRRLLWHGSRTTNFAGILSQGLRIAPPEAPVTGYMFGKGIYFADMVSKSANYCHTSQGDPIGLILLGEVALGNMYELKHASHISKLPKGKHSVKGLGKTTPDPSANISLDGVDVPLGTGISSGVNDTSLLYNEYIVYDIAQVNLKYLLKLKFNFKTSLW

[34] = system: MDA-MB-231; test: Antitumor activity against human MDA-MB-231 cells harboring wild-type BRCA incubated for 72 hrs by MTT assay; format: functional, cell-based; settings: MDA-MB-231, 72 h
[35] = Toxicity in BALB/c nude mouse xenografted with human MDA-MB-231 cells assessed as damage in liver at 38 mg/kg, ip administered on every 2 days for 28 days by H and E staining based analysis; format: organism-based; settings: in vivo, 672 h, time 28 day
[36] = system: MDA-MB-231; test: (§1) Induction of depolarization of mitochondrial membrane potential in human MDA-MB-231 cells at 5 uM incubated for 24 hrs by JC-1 staining based flow cytometry relative to control; format: functional
[37] = system: MDA-MB-231; test: Antitumor activity against human MDA-MB-231 cells xenografted in BALB/c nude mouse at 23 mg/kg, ip administered on every 2 days for 28 days in presence of Olaparib relative to control; format: functional; settings: MDA-MB-231, 672 h, time 28 day, read-out: TGI
[38] = system: MDA-MB-231; test: Antitumor activity against human MDA-MB-231 cells xenografted in BALB/c nude mouse assessed as increase in apoptotic cells at 23 mg/kg, ip administered on every 2 days for 28 days in presence of Olaparib by H and E staining based analysis; format: functional, organism-based; settings: time 28.0 day
[39] = system: MDA-MB-231; test: Antitumor activity against human MDA-MB-231 cells xenografted in BALB/c nude mouse at 23 mg/kg, ip administered on every 2 days for 28 days relative to control; format: functional; settings: MDA-MB-231, 672 h, time 28 day, read-out: TGI
[40] = Toxicity in BALB/c nude mouse xenografted with human MDA-MB-231 cells assessed as body weight change at 23 mg/kg, ip administered on every 2 days for 28 days in presence of Olaparib; format: organism-based; settings: in vivo, 672 h, time 28 day
[41] = system: MDA-MB-231; test: Antitumor activity against human MDA-MB-231 cells xenografted in BALB/c nude mouse assessed as increase in apoptotic cells at 23 mg/kg, ip administered on every 2 days for 28 days by H and E staining based analysis; format: functional, organism-based; settings: time 28.0 day
[42] = Toxicity in BALB/c nude mouse xenografted with human MDA-MB-231 cells assessed as drug tolerance at 23 mg/kg, ip administered on every 2 days for 28 days in presence of Olaparib; format: organism-based; settings: in vivo, 672 h, time 28 day
[43] = system: MDA-MB-231; test: Anti-migration activity in human MDA-MB-231 cells at 1 uM incubated for 24 hrs by wound healing assay; format: functional, cell-based
[44] = Toxicity in BALB/c nude mouse xenografted with human MDA-MB-231 cells assessed as body weight change at 23 mg/kg, ip administered on every 2 days for 28 days; format: organism-based; settings: in vivo, 672 h, time 28 day
[45] = system: MDA-MB-231; test: Antitumor activity against human MDA-MB-231 cells xenografted in BALB/c nude mouse assessed as increase in necrotic cells at 23 mg/kg, ip administered on every 2 days for 28 days in presence of Olaparib by H and E staining based analysis; format: functional, organism-based; settings: time 28.0 day
[46] = system: MDA-MB-231; test: Antitumor activity against human MDA-MB-231 cells xenografted in BALB/c nude mouse assessed as decrease in Ki-67 expression at 23 mg/kg, ip administered on every 2 days for 28 days by H and E staining based analysis; format: functional, organism-based; settings: time 28.0 day
[47] = system: MDA-MB-231; test: Antitumor activity against human MDA-MB-231 cells xenografted in BALB/c nude mouse assessed as decrease in Ki-67 expression at 23 mg/kg, ip administered on every 2 days for 28 days in presence of Olaparib by H and E staining based analysis; format: functional, organism-based; settings: time 28.0 day
[48] = Toxicity in BALB/c nude mouse xenografted with human MDA-MB-231 cells assessed as drug tolerance at 23 mg/kg, ip administered on every 2 days for 28 days; format: organism-based; settings: in vivo, 672 h, time 28 day
[49] = system: MDA-MB-231; test: Antitumor activity against human MDA-MB-231 cells xenografted in BALB/c nude mouse assessed as increase in necrotic cells at 23 mg/kg, ip administered on every 2 days for 28 days by H and E staining based analysis; format: functional, organism-based; settings: time 28.0 day
[50] = as §1; format: functional

Compound: COc1cc(OC)c(/C=C/S(=O)(=O)Cc2ccc(OC)c(NCCCC(=O)N3CCN(C(=O)c4cc(Cc5n[nH]c(=O)c6ccccc56)ccc4F)CC3)c2)c(OC)c1
- Activity [1]: Active
- Activity [2]: Active
- IC50 [3]: 970 nM
- IC50 at 72 h [4]: > 40000 nM
- Activity [5]: Active
- Activity [6]: Active
- Activity [7]: Active
- Activity [8]: Non-Toxic
- Activity [9]: Active
- Activity [10]: Non-Toxic
- Activity [11]: Non-Toxic
- inhibition in vivo at 38 mg/kg [12]: 61.3%
- IC50 [13]: 1170 nM
- Activity [14]: Non-Toxic
- Activity [15]: Non-Toxic
- Activity [16]: Active
- Activity [17]: Active
- Activity [18]: Non-Toxic
- Activity [19]: 48.26%
- Activity [20]: Active
- Activity [21]: inactive
- Activity [22]: Active
- Activity [23]: 17.3%
- Activity [24]: Active
- Activity [25]: Active
- Activity [26]: Active
- Activity [27]: inactive
- Activity [28]: Active
- Activity [29]: Active
- IC50 [30]: 1240 nM
- Activity [31]: Active
- Activity [32]: Active
- IC50 [33]: 112 nM
- IC50 [34]: 750 nM
- Activity [35]: Non-Toxic
- Activity [36]: Active

Compound: COc1cc(OC)c(/C=C/S(=O)(=O)Cc2ccc(OC)c(NCCCC(=O)O)c2)c(OC)c1
- Activity [1]: Active
- Activity [2]: Active
- inhibition in vivo at 23 mg/kg [37]: 56.7%
- IC50 [3]: 2110 nM
- IC50 at 72 h [4]: 30600 nM
- Activity [5]: Active
- Activity [38]: Active
- Activity [6]: Active
- Activity [9]: Active
- IC50 [13]: 1080 nM
- inhibition in vivo at 23 mg/kg [39]: 51.8%
- Activity [40]: Non-Toxic
- Activity [41]: Active
- Activity [42]: Non-Toxic
- Activity [43]: Active
- Activity [16]: Active
- Activity [17]: Active
- Activity [44]: Non-Toxic
- Activity [19]: 31.1%
- Activity [45]: Active
- Activity [21]: inactive
- Activity [46]: Active
- Activity [22]: inactive
- Activity [47]: Active
- Activity [25]: Active
- Activity [26]: Active
- Activity [27]: inactive
- Activity [28]: Active
- Activity [29]: Active
- IC50 [30]: 2330 nM
- Activity [48]: Non-Toxic
- Activity [49]: Active
- Activity [31]: Active
- Activity [32]: Active
- IC50 [34]: 1870 nM
- Activity [50]: 31.56%
